# In patent US20090093460A1, “Compositions” (AstraZeneca AB, priority 2003, published 2009):
# Legend:
# mice [1] = experiment: Standard apomorphine climbing mouse assay; type: in vivo; conditions: p.o.
# Excerpt: The methods and procedures used can be found in Warawa et al., J. Med. Chem., 2001, 44 (3), 372-389, and are incorporated herein by reference.
# dopamine D1 receptor = target: T1, dopamine D1 receptor (Homo sapiens, UniProt P21728); experiment: In vitro binding, dopamine D1 receptor; conditions: dihydrochloride salt; read-out: binding affinity K1
# T1 construct: from tissue; host or cells: brain
# T1 sequence (P21728 whole entry): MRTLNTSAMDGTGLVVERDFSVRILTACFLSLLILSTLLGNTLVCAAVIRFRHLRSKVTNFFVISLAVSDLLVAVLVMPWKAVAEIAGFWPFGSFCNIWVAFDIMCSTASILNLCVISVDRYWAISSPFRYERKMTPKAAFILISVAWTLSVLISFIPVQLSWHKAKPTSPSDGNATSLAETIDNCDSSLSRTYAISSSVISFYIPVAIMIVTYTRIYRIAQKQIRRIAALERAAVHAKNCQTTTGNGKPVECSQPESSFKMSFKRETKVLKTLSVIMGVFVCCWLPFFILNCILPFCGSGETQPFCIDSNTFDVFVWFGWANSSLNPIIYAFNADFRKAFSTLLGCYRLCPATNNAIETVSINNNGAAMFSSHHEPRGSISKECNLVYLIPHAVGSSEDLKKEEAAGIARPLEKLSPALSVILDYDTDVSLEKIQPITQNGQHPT
# [2] = target: T2, brain serotonin 5-HT2 receptor (Homo sapiens, UniProt P28223); experiment: In vitro binding, brain serotonin 5-HT2 receptor; conditions: dihydrochloride salt; read-out: binding affinity K1
# T2 construct: from tissue; host or cells: brain
# T2 sequence (P28223 whole entry): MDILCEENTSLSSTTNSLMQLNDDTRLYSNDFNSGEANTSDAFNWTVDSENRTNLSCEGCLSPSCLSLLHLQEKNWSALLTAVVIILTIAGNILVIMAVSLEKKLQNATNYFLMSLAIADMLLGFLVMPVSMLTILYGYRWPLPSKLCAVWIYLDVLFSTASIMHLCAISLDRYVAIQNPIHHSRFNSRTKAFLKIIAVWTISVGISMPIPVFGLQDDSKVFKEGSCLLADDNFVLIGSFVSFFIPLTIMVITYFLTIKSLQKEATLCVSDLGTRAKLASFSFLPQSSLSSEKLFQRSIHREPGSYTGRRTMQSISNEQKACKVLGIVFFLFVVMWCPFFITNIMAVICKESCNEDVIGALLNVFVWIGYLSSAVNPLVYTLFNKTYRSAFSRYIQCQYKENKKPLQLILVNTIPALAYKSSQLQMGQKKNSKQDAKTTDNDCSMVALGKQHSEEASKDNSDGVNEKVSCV
# dopamine D2 receptor = dopamine D2 receptor (Homo sapiens, UniProt P14416); experiment: In vitro binding, dopamine D2 receptor; conditions: dihydrochloride salt; read-out: binding affinity K1
# dopamine D2 receptor, sequence (P14416 whole entry): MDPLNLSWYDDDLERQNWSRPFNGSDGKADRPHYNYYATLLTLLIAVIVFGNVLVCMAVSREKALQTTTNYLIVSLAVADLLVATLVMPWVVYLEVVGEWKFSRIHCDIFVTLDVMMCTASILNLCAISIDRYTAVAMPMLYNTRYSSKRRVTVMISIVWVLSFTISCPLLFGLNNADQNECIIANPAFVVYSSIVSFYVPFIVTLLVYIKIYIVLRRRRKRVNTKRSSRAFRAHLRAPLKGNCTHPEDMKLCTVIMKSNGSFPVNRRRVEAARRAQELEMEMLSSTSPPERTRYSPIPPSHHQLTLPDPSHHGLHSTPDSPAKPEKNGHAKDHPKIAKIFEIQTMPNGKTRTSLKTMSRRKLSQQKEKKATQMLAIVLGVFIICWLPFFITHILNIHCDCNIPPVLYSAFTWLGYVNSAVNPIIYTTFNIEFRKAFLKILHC
# mice [3] = experiment: Mouse forced swim test; type: in vivo; conditions: 5.0, 10.0 and 20.0 mg/kg sc, 15 minutes prior
# Description: Methods: Mice were placed in cylinders of water (25.0° C.±1.5° C.) for 6 minutes. The amount of immobility was quantified during the last 4 minutes of each session. The experimental observer was blind to the treatment conditions. […] Imipramine 45.0 mg/kg and citalopram 15.0 mg/kg were measured as the salt and administered ip 60 minutes prior to the behavioural session.
# mice [4] = experiment: Tail suspension test; type: in vivo, mouse; conditions: 30 mg/kg p.o., 60 minutes prior
# Description: Antidepressant activity of 11-piperazin-1-yldibenzo[b,f][1,4]thiazepine was assessed in mice according to the tail suspension test. As shown in the results below, 11-piperazin-1-yldibenzo[b,f][1,4]thiazepine has antidepressant activity in mice.
# In a first experiment, mice (n=10/group) were treated with vehicle, 2.0, 5.0, or 10.0 mg/kg of 11-piperazin-1-yldibenzo[b,f][1,4]thiazepine s.c. 15 minutes prior to the test session. Mice were suspended from their tails for 7 minutes. During the last 5 minutes of the test, the duration of immobility was recorded. In a second experiment, mice (n=10/group) were treated with vehicle, 30 mg/kg 11-piperazin-1-yldibenzo[b,f][1,4]thiazepine, or 30 mg/kg fluoxetine p.o. 60 minutes prior to the test session. Mice were suspended from their tails for 7 minutes. During the last 5 minutes of the test, the duration of immobility was recorded.
smiles,measurement,setting,value
"Cl.Cl.c1ccc2c(c1)N=C(N1CCNCC1)c1ccccc1S2 [Example 2, 11-piperazin-1-yldibenzo[b,f][1,4]thiazepine, dihydrochloride salt]",in vivo antipsychotic activity,mice [1],not found to be efficacious
same,Ki,dopamine D1 receptor,1490 nM
same,Ki,[2],27 nM
same,Ki,dopamine D2 receptor,234 nM
"OCCOCCN1CCN(C2=Nc3ccccc3Sc3ccccc32)CC1 [Quetiapine, reference compound]",antidepressant effect (immobility),mice [3],no effect
"CNCCC(Oc1ccc(C(F)(F)F)cc1)c1ccccc1 (stereo not shown) [fluoxetine, reference compound]","reduction of immobility, fraction of that of the vehicle control group",mice [4],more than ½
same,duration of immobility compared to the vehicle control group,mice [4]; p<0.01,significantly reduced immobility
